For 29 compounds, IC50 results are on record in patent publication US20240376091A1, “THIADIAZOLEAMIDE DERIVATIVES AND THEIR APPLICATIONS” (ZHEJIANG UNIVERSITY, priority 2021, published 2024).

In the assay the target is T1, AR (Homo sapiens, UniProt P10275, T878A).
T1 construct: into the androgen-dependent PCa cells (LNCaP); endogenous in cells; host or cells: LNCaP-ARR2PB-eGFP
T1 sequence (P10275 1-920 T878A): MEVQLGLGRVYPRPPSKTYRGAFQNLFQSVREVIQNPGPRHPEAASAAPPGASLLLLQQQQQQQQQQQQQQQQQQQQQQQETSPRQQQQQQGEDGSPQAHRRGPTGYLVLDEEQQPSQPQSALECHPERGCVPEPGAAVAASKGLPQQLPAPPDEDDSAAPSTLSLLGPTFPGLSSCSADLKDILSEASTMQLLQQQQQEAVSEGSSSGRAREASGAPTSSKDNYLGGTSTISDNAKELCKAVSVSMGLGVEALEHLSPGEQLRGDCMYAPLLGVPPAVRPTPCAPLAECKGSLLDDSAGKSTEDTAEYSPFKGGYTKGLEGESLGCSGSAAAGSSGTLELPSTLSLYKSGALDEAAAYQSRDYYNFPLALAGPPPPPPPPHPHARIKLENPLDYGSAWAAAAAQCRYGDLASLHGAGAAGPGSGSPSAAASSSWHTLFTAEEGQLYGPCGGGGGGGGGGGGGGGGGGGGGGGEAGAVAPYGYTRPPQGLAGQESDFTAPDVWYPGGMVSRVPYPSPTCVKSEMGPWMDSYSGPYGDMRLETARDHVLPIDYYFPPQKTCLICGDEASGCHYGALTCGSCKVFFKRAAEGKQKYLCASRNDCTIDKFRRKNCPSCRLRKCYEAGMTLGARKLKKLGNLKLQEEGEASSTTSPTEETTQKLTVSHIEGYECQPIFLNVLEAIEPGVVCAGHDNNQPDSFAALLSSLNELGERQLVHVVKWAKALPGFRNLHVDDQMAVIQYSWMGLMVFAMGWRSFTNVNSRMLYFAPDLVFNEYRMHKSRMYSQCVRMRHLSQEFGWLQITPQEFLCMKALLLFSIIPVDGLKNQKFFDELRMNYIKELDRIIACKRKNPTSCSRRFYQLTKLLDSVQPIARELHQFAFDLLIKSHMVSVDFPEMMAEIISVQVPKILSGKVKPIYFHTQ
The assay is described as follows: AR transcriptional activity, LNCaP-ARR2PB-eGFP reporter cells. To be noted: read-out: IC50 AR transcriptional activities. The assay is classed as cell-based. An excerpt: Detection principles: We conducted a stable transfection of promoter ARR2PB known for its strong AR responsiveness, into the androgen-dependent PCa cells (LNCaP). The expression of enhanced green fluorescent protein (eGFP) is depending on the degree of activation of AR. Therefore, LNCaP-ARR2PB-eGFP cell line could quantitatively determine the AR antagonistic activities of the compounds by evaluating the expression of eGFP.
With `CC(F)(F)Cc1nsc(NC(=O)c2csc(-c3cccc(C(F)(F)F)c3)c2)n1` [Compound D-35, N-(3-(2,2-difluoropropyl)-1,2,4-thiadiazol-5-yl)-5-(3-(trifluoromethyl)phenyl)thiophene-3-carboxamide], the half-inhibitory concentration (IC50) (in general, the midpoint of a concentration-inhibition curve) came out at 49.5 µM.

In the case of `CC(=O)Cc1nsc(NC(=O)c2cc(-c3cccc(OC(F)F)c3)sc2C)n1` [Compound C-5, 5-(3-(Difluoromethoxy)phenyl)-2-methyl-N-(3-(2-oxopropyl)-1,2,4-thiadiazol-5-yl)thiophene-3-carboxamide], the IC50 was determined as 49.3 µM.

As to `CC(Cc1nsc(NC(=O)c2csc(-c3cccc(OC(F)(F)F)c3)c2)n1)N1CCOCC1` [Compound D-16, N-(3-(2-morpholinopropyl)-1,2,4-thiadiazol-5-yl)-5-(3-(trifluoromethoxy)phenyl)thiophene-3-carboxamide], the 50% inhibitory concentration (IC50) came out at 24.2 µM.

Take `Cc1oc(C(=O)Nc2nc(CC(C)N3CCN(C)CC3)ns2)cc1-c1cccc(OC(F)F)c1` (centres unmarked) [Compound F-10, 4-(3-(Difluoromethoxy)phenyl)-5-methyl-N-(3-(2-(4-methylpiperazin-1-yl)propyl)-1,2,4-thiadiazol-5-yl)furan-2-carboxamide]: the IC50 was determined as 27.1 µM.

Consider `Cc1oc(-c2cccc(C#N)c2)cc1C(=O)Nc1nc(CC(C)N2CCN(C)CC2)ns1` (centres unmarked) [Compound A-56, 5-(3-Cyanophenyl)-2-methyl-N-(3-(2-(4-methylpiperazin-1-yl)propyl)-1,2,4-thiadiazol-5-yl)furan-3-carboxamide], for which the half-maximal inhibitory concentration (IC50) amounted to 0.84 µM.

Take `CCN(CC)C(C)Cc1nsc(NC(=O)c2csc(-c3cccc(C(F)(F)F)c3)c2)n1` [Compound D-7, N-(3-(2-(diethylamino)propyl)-1,2,4-thiadiazol-5-yl)-5-(3-(trifluoromethyl)phenyl)thiophene-3-carboxamide]: the half-inhibitory concentration (IC50) was found to be 23.2 µM.

On to `CC(=O)Cc1nsc(NC(=O)c2cc(-c3cccc(Br)c3)oc2C)n1` [Compound A-9, 5-(3-Bromophenyl)-2-methyl-N-(3-(2-oxopropyl)-1,2,4-thiadiazol-5-yl)furan-3-carboxamide], for which the concentration for half-maximal inhibition (IC50) turned out to be 2.36 µM.

Regarding `CC(=O)Cc1nsc(NC(=O)c2coc(-c3cccc(C#N)c3)c2)n1` [Compound B-2, 5-(3-Cyanophenyl)-N-(3-(2-oxopropyl)-1,2,4-thiadiazol-5-yl)furan-3-carboxamide], the IC50 worked out at 54.9 µM.

For the compound `CCN(CC)C(C)Cc1nsc(NC(=O)c2cc(-c3cccc(C(F)(F)F)c3)sc2C)n1` (centres unmarked) [Compound C-7, N-(3-(2-(diethylamino)propyl)-1,2,4-thiadiazol-5-yl)-2-methyl-5-(3-(trifluoromethyl)phenyl)thiophene-3-carboxamide], the half-inhibitory concentration (IC50) was found to be 10.6 µM.

`Cc1oc(-c2cccc(OC(F)F)c2)cc1C(=O)Nc1nc(CN2CCN(C)CC2)ns1` [Compound A-131, 5-(3-(Difluoromethoxy)phenyl)-2-methyl-N-(3-((4-methylpiperazin-1-yl)methyl)-1,2,4-thiadiazol-5-yl)furan-3-carboxamide]: the IC50 turned out to be 1.42 µM.

Regarding `Cc1sc(-c2cccc(C#N)c2)cc1C(=O)Nc1nc(CC(C)N2CCCCC2)ns1` (centres unmarked) [Compound C-12, 5-(3-Cyanophenyl)-2-methyl-N-(3-(2-(piperidin-1-yl)propyl)-1,2,4-thiadiazol-5-yl)thiophene-3-carboxamide], the IC50 turned out to be 5.77 µM.

Consider `CC(=O)Cc1nsc(NC(=O)c2cc(-c3cccc(OC(F)F)c3)c(C)o2)n1` [Compound F-5, 4-(3-(Difluoromethoxy)phenyl)-5-methyl-N-(3-(2-oxopropyl)-1,2,4-thiadiazol-5-yl)furan-2-carboxamide], for which the IC50 is 12.6 µM.

In the case of `Cc1oc(-c2cccc(C#N)c2)cc1C(=O)Nc1nc(CC(C)N2CCCC2)ns1` (centres unmarked) [Compound A-46, 5-(3-Cyanophenyl)-2-methyl-N-(3-(2-(pyrrolidin-1-yl)propyl)-1,2,4-thiadiazol-5-yl)furan-3-carboxamide], the IC50 worked out at 0.41 µM.

As for `Cc1oc(-c2cccc(C(F)(F)F)c2)cc1C(=O)Nc1ncns1` [Compound A-99, 2-Methyl-N-(1,2,4-thiadiazol-5-yl)-5-(3-(trifluoromethyl)phenyl)furan-3-carboxamide], the IC50 was 10.4 µM.

Take `O=C(Nc1nc(CN2CCCC2)ns1)c1cc(-c2cccc(OC(F)(F)F)c2)oc1C(F)(F)F` [Compound E-40, N-(3-(pyrrolidin-1-ylmethyl)-1,2,4-thiadiazol-5-yl)-5-(3-(trifluoromethoxy)phenyl)-2-(trifluoromethyl)furan-3-carboxamide]: the concentration for half-maximal inhibition (IC50) is 2.92 µM.

In the case of `[2H]c1c(-c2cccc(C(F)(F)F)c2)oc(C)c1C(=O)Nc1nc(CC(C)=O)ns1` [Compound A-34, 2-Methyl-N-(3-(2-oxopropyl)-1,2,4-thiadiazol-5-yl)-5-(3-(trifluoromethyl)phenyl)furan-4-d-3-carboxamide], the IC50 amounted to 0.04 µM.

In the case of `CN1CCN(Cc2nsc(NC(=O)c3cc(-c4cccc(C#N)c4)oc3C(F)(F)F)n2)CC1` [Compound E-38, 5-(3-Cyanophenyl)-N-(3-((4-methylpiperazin-1-yl)methyl)-1,2,4-thiadiazol-5-yl)-2-(trifluoromethyl)furan-3-carboxamide], the IC50 was 1.45 µM.

On to `CC(Cc1nsc(NC(=O)c2coc(-c3cccc(OC(F)(F)F)c3)c2)n1)N1CCOCC1` (centres unmarked) [Compound B-16, N-(3-(2-morpholinopropyl)-1,2,4-thiadiazol-5-yl)-5-(3-(trifluoromethoxy)phenyl)furan-3-carboxamide], for which the IC50 was found to be 35.7 µM.

Take `CC(=O)Cc1nsc(NC(=O)c2cc(-c3cccc(C#N)c3)sc2C)n1` [Compound C-2, 5-(3-Cyanophenyl)-2-methyl-N-(3-(2-oxopropyl)-1,2,4-thiadiazol-5-yl)thiophene-3-carboxamide]: the IC50 worked out at 33.3 µM.

Regarding `COc1cccc(-c2cc(C(=O)Nc3nc(CC(C)=O)ns3)oc2C)c1` [Compound F-3, 4-(3-Methoxyphenyl)-5-methyl-N-(3-(2-oxopropyl)-1,2,4-thiadiazol-5-yl)furan-2-carboxamide], the half-inhibitory concentration (IC50) was determined as 22.4 µM.

Turning to `CC(=O)Cc1nsc(NC(=O)c2csc(-c3cccc(OC(F)(F)F)c3)c2)n1` [Compound D-4, N-(3-(2-oxopropyl)-1,2,4-thiadiazol-5-yl)-5-(3-(trifluoromethoxy)phenyl)thiophene-3-carboxamide], the IC50 came out at 41.5 µM.

Turning to `O=C(Nc1nc(CN2CCOCC2)ns1)c1csc(-c2cccc(OC(F)F)c2)c1` [Compound D-57, 5-(3-(Difluoromethoxy)phenyl)-N-(3-(morpholinomethyl)-1,2,4-thiadiazol-5-yl)thiophene-3-carboxamide], the half-inhibitory concentration (IC50) was determined as 15 µM.

With `CC(O)Cc1nsc(NC(=O)c2cc(-c3cccc(C(F)(F)F)c3)co2)n1` (centres unmarked) [Compound G-11, N-(3-(2-hydroxypropyl)-1,2,4-thiadiazol-5-yl)-4-(3-(trifluoromethyl)phenyl)furan-2-carboxamide], the half-inhibitory concentration (IC50) is 29.3 µM.

`[2H]c1c(-c2cccc(C#N)c2)oc(C)c1C(=O)Nc1nc(CC(C)=O)ns1` [Compound A-35, 5-(3-Cyanophenyl)-2-methyl-N-(3-(2-oxopropyl)-1,2,4-thiadiazol-5-yl)furan-4-d-3-carboxamide]: the IC50 is 0.72 µM.

Regarding `Cc1oc(-c2cccc(C(F)(F)F)c2)cc1C(=O)Nc1nc(CC(C)N2CCOCC2)ns1` (centres unmarked) [Compound A-42, 2-Methyl-N-(3-(2-morpholinopropyl)-1,2,4-thiadiazol-5-yl)-5-(3-(trifluoromethyl)phenyl) furan-3-carboxamide], the IC50 turned out to be 0.36 µM.

In the case of `CN1CCN(Cc2nsc(NC(=O)c3cc(-c4cccc(OC(F)F)c4)co3)n2)CC1` [Compound G-28, 4-(3-(Difluoromethoxy)phenyl)-N-(3-((4-methylpiperazin-1-yl)methyl)-1,2,4-thiadiazol-5-yl)furan-2-carboxamide], the 50% inhibitory concentration (IC50) is 39.2 µM.

For the compound `COc1cccc(-c2cc(C(=O)Nc3nc(CC(C)=O)ns3)c(C)s2)c1` [Compound C-3, 5-(3-Methoxyphenyl)-2-methyl-N-(3-(2-oxopropyl)-1,2,4-thiadiazol-5-yl)thiophene-3-carboxamide], the IC50 came out at 43.7 µM.

Regarding `COc1cccc(-c2cc(C(=O)Nc3nc(CN4CCOCC4)ns3)oc2C)c1` [Compound F-26, 4-(3-Methoxyphenyl)-5-methyl-N-(3-(morpholinomethyl)-1,2,4-thiadiazol-5-yl)furan-2-carboxamide], the IC50 came out at 31.9 µM.

Take `Cc1sc(-c2cccc(OC(F)F)c2)cc1C(=O)Nc1nc(CN2CCOCC2)ns1` [Compound C-57, 5-(3-(Difluoromethoxy)phenyl)-2-methyl-N-(3-(morpholinomethyl)-1,2,4-thiadiazol-5-yl)thiophene-3-carboxamide]: the half-inhibitory concentration (IC50) was determined as 13.3 µM.
